Experimental data published in paper PMC11822712, “Improving the Activity and Selectivity of a Scorpion-Derived Peptide, A3a, against Acinetobacter baumannii through Rational Design” (ACS Omega, 2025).
Converted amounts (≈) assume the structure as drawn. Read-outs that look alike come from different tables or passages of the source. Positions of bridges follow the written chain, without caps; N, C: chain ends. Non-standard residues stand in square brackets, D forms with d. Residues, ends and D or L forms follow the SMILES beside them. No end group written: not given here. *: point of attachment. X1 = CC[C@H](C)CCCCC(=O)*; Dab = NCC[C@H](N)C(=O)O

Assays:
[1] = system: HaCat cell; conditions: read-out: IC50 of HaCat cell viability; cited from earlier work
Experimental: Previously, we amidated the C-terminus of A3 to improve its activity against Gram-negative bacteria.[14] A3, the amidated analogue A3a, and the parent peptide AamAP1 were evaluated for antibacterial activity against a panel of ESKAPE pathogens.

[2] = system: erythrocytes; conditions: 40 μM ref 13; cited from earlier work
[3] = system: E. coli ATCC 25922; assay: microbe, parasite or virus in culture; type: cell-based, Escherichia coli; conditions: cation-adjusted MHB, OD600
[4] = system: K. pneumoniae ATCC BAA-1705; assay: microbe, parasite or virus in culture; type: cell-based, Klebsiella pneumoniae
[5] = system: A. baumannii ATCC 19606; assay: microbe, parasite or virus in culture; type: cell-based, Acinetobacter baumannii; conditions: cation-adjusted MHB, OD600
[6] = system: S. aureus (MSSA) ATCC 25923; assay: microbe, parasite or virus in culture; type: cell-based, Staphylococcus aureus; conditions: cation-adjusted MHB, OD600
[7] = system: P. aeruginosa ATCC 27853; assay: microbe, parasite or virus in culture; type: cell-based, Pseudomonas aeruginosa; conditions: cation-adjusted MHB, OD600
[8] = system: E. cloacae ATCC 700323; assay: microbe, parasite or virus in culture
Experimental: Antimicrobial activity was determined against a panel of ESKAPE pathogens. […] Bacterial colonies were picked and cultured in cation-adjusted MHB at 37 °C with 180 rpm shaking. Cultures were back-diluted to reach a starting OD600 of 0.1 and then diluted 100-fold to approximately 1 × 10^6 CFU/mL.

[9] = system: A. baumannii ATCC 19606; assay: Killing kinetics (CFU, Miles Misra method); type: cell-based, Acinetobacter baumannii; conditions: 1×, 4× and 8× MIC, A3a tested at the same concentration as A3a[R7K] (Figure 3 legend)
Experimental: Colistin (8 μg/mL) was used as a positive control. […] Following exposure, 10 μL was used from the individual wells to determine the CFUs with the Miles Misra method.[57] The limit of detection for this method was 1000 CFUs. This was done at 30 min and 2, 6, and 24 h.

[10] = system: A. baumannii ATCC 19606; assay: Membrane permeabilization, SYTOX Green assay; type: cell-based, Acinetobacter baumannii; conditions: SYTOX Green fluorescence, 1× MIC, 0.5 and 2 h exposure; melittin 8 μM positive control; three biological repeats
Experimental: For membrane permeabilization studies, A. baumannii ATCC 19606 cells were evaluated after exposure to each peptide by measuring fluorescence. The SYTOX Green assay was undertaken according to Zeng et al.,[58] with some modifications. […] Melittin (8 μM) was used as the positive control. The fluorescence was measured every 2 min at excitation and emission wavelengths of 485 and 535 nm, respectively (Spectramax, Multimode detection platform, Molecular Devices, Austria).

[11] = approx. 1 × 10^6 CFU/mL added 1:1, 20 h, MIC = lowest concentration with growth <0.1 above background, > = no activity at highest concentration tested
[12] = cation-adjusted MHB, approx. 1 × 10^6 CFU/mL added 1:1, 20 h, OD600, MIC = lowest concentration with growth <0.1 above background, > = no activity at highest concentration tested
[13] = same test as μg/mL value, 20 h, read-out: MIC (value in brackets)
[14] = same test as μg/mL value, cation-adjusted MHB, 20 h, OD600

| Compound | MIC [3, 11] | MIC [4, 12] | MIC [5, 11] | MIC [6, 11] | MIC [7, 11] | MIC [8, 12] | further results |
| --- | --- | --- | --- | --- | --- | --- | --- |
| FLFSLIRKAIGGLISAFK [A3] |  |  |  |  |  |  | IC50 [1]: 59.9 µM; hemolysis [2]: 36.1% |
| FLFSLRKAGGLISAFK-NH2 [A3a[I(6,10)-del]] | >128 µg/mL | >128 µg/mL | >128 µg/mL | >128 µg/mL | >128 µg/mL | >128 µg/mL |  |
| colistin |  |  |  |  |  |  | regrowth after 24 h in killing kinetics [9]: regrowth at all of the concentrations tested |
| CNC(C)C1CCC(N)C(OC2C(N)CC(N)C(OC3OCC(C)(O)C(NC)C3O)C2O)O1 (stereo not drawn) [gentamicin] | 0.5 µg/mL | 2 µg/mL | 32 µg/mL | 0.5 µg/mL | 4 µg/mL |  | MIC ([3]; Escherichia coli, ATCC25922, same test as μg/mL value, 20 h, read-out: MIC (value in brackets)): 1 µM; MIC ([4]; Klebsiella pneumoniae, ATCCBAA1705, 20 h, read-out: MIC (value in brackets)): 4 µM; MIC ([5]; Acinetobacter baumannii, ATCC19606, same test as μg/mL value, 20 h, read-out: MIC (value in brackets)): 67 µM; MIC ([6]; Staphylococcus aureus, same test as μg/mL value, 20 h, read-out: MIC (value in brackets)): 1 µM; MIC ([7]; Pseudomonas aeruginosa, ATCC27853, same test as μg/mL value, 20 h, read-out: MIC (value in brackets)): 8 µM; MIC ([8]; Enterobacter cloacae, ATCC700323, 20 h, read-out: MIC (value in brackets)): 4 µM; MIC ([8]; cation-adjusted MHB, approx. 1 × 10^6 CFU/mL added 1:1, 20 h, OD600, […], > = no activity at highest concentration tested): 2 µg/mL |
| CC[C@H](C)CCCCC(=O)N[C@@H](CCN)C(=O)N[C@H](C(=O)N[C@@H](CCN)C(=O)N[C@H]1CCNC(=O)[C@H]([C@@H](C)O)NC(=O)[C@H](CCN)NC(=O)[C@H](CCN)NC(=O)[C@H](CC(C)C)NC(=O)[C@@H](Cc2ccccc2)NC(=O)[C@H](CCN)NC1=O)[C@@H](C)O [polymyxin B] (X1-[Dab]T[Dab][Dab][Dab][dF]L[Dab][Dab]T; lactam 4-C (inferred); N-terminus assumed) | 0.5 µg/mL | 0.5 µg/mL | 1 µg/mL | >32 µg/mL | 2 µg/mL | 0.25 µg/mL | MIC [3, 13]: 0.4 µM; MIC (value in brackets) [4, 14]: 0.4 µM (≈ 0.481 µg/mL); MIC [5, 13]: 0.76 µM; MIC [7, 13]: 1.5 µM; MIC (value in brackets) [8, 14]: 0.19 µM (≈ 0.229 µg/mL) |
| melittin |  |  |  |  |  |  | membrane permeabilization [10]: rapid membrane permeabilization |
